# Results reported in ChEMBL document CHEMBL4354864, “Bicyclic α-Iminophosphonates as High Affinity Imidazoline I2 Receptor Ligands for Alzheimer's Disease” (J Med Chem, 2020).
# The source made the active and inactive calls. The calls are words filed in the database; no cut-off is given here.
# Key:
# Mus musculus [1] = experiment: Effect on FADD in CD-1 mouse at 20 mg/kg, ip administered for 5 days and measured after 1 hr of last dosage by Westernblot analysis; format: functional, organism-based
# Cytochrome P450 3A4 = Cytochrome P450 3A4 (Homo sapiens, UniProt P08684); experiment: Inhibition of recombinant human CYP3A4 at 10 uM using 7-benzyloxytrifluoromethyl coumarin (7-BFC) and Dibenzylfluorescein as substrate incubated for 5 mins followed by substrate addition by fluorescence based assay; format: ADME; details: recombinant enzyme
# Sequence of Cytochrome P450 3A4 (P08684 whole entry): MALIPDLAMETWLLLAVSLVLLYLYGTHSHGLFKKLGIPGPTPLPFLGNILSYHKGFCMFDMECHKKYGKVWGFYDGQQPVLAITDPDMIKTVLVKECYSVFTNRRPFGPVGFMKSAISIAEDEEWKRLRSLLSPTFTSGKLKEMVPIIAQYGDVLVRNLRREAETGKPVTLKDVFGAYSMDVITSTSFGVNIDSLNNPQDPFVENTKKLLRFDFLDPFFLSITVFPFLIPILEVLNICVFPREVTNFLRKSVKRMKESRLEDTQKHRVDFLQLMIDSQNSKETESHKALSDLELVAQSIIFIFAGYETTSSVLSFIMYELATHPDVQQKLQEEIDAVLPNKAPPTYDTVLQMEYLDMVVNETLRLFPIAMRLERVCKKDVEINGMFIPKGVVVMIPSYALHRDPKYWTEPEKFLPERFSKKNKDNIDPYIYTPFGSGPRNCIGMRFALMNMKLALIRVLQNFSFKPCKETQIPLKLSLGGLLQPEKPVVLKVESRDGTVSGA
# Mus musculus [2] = experiment: Antineuroinflammatory activity in mouse model of 5xFAD assessed as reduction in sAPPbeta expression at 5 mg/kg, po administered for 4 weeks by Western blot analysis; format: functional, organism-based
# Mus musculus [3] = experiment: Antineuroinflammatory activity in mouse model of 5xFAD assessed as reduction in H2O2 level at 5 mg/kg, po administered for 4 weeks; format: functional, organism-based
# HeLa = experiment: Cytotoxicity against human HeLa cells assessed as reduction in cell viability at 100 uM incubated for 3 to 5 days by colorimetric analysis; format: cell-based
# Cytochrome P450 2C9 = Cytochrome P450 2C9 (Homo sapiens, UniProt P11712); experiment: Inhibition of recombinant human CYP2C9 at 10 uM using 7-methoxy-4-(trifluoromethyl)coumarin as substrate incubated for 5 mins followed by substrate addition by fluorescence based assay; format: ADME; details: recombinant enzyme
# Sequence of Cytochrome P450 2C9 (P11712 whole entry): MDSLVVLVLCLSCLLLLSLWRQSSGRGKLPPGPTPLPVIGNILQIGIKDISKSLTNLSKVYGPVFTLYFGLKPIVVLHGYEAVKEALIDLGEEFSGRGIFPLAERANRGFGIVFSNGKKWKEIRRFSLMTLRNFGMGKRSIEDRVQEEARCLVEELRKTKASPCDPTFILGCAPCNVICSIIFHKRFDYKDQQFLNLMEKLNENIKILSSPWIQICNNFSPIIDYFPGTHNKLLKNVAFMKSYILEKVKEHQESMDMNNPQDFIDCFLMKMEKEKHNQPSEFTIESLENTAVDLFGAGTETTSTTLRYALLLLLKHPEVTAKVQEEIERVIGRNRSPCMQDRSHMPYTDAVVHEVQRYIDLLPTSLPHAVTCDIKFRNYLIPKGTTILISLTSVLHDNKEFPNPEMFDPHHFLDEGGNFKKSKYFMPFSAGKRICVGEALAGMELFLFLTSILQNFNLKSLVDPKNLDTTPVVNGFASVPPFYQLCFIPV
# [4] = Solubility of compound in 1% DMSO incubated for 2 hrs by nephelometry; format: physicochemical
# [5] = Solubility of compound in methanol incubated for 2 hrs by nephelometry; format: physicochemical
# Nischarin = Nischarin (Homo sapiens, UniProt Q9Y2I1); experiment: Displacement of [3H]clonidine from I1IR in human brain frontal cortex in presence of adrenaline incubated for 45 mins by liquid scintillation spectrometry; format: tissue-based
# Sequence of Nischarin (Q9Y2I1 whole entry): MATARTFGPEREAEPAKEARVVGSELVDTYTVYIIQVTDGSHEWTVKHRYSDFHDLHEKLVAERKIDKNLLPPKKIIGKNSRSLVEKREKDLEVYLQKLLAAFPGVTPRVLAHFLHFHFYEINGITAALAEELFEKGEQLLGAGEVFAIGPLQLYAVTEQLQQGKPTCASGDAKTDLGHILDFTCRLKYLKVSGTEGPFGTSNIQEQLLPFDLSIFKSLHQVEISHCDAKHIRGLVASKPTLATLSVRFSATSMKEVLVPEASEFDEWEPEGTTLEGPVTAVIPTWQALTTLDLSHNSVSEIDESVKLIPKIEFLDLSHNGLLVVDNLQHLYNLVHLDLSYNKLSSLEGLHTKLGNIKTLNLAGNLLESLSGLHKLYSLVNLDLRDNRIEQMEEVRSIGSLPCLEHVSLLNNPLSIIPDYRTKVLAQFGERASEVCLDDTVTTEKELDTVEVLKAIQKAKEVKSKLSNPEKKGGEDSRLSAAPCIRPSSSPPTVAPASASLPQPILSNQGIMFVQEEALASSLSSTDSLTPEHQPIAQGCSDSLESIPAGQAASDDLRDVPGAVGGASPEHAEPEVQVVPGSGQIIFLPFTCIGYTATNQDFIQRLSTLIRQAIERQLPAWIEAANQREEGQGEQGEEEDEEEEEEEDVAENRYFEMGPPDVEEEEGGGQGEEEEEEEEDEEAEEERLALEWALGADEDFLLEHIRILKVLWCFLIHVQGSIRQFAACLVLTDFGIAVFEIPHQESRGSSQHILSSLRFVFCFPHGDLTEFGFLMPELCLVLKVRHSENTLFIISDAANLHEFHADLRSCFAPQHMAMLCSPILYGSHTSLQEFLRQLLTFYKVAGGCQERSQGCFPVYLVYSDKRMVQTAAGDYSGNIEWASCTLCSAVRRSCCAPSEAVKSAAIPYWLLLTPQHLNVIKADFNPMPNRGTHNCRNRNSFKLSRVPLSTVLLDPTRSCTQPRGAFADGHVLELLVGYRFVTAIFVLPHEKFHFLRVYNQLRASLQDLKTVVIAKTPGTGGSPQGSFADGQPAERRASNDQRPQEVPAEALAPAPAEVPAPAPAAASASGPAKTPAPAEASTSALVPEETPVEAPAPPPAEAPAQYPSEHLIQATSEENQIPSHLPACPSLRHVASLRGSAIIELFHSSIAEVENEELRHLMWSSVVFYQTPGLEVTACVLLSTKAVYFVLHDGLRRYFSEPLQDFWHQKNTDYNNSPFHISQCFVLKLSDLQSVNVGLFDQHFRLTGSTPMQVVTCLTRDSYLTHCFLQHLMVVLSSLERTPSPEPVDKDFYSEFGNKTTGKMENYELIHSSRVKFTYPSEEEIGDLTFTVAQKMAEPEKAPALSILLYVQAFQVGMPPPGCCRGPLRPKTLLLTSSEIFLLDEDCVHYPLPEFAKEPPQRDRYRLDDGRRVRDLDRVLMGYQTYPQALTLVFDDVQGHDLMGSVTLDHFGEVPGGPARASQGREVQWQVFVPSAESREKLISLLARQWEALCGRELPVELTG
# [6] = Effective permeability of compound by PAMPA-BBB assay; format: ADME; details: read-out: Peff
# [7] = molecular target: Voltage-gated inwardly rectifying potassium channel KCNH2 (Homo sapiens, UniProt Q12809); experiment: Inhibition of recombinant human ERG expressed in CHO cells by patch clamp assay; format: cell-based
# Sequence of Voltage-gated inwardly rectifying potassium channel KCNH2 (Q12809 whole entry): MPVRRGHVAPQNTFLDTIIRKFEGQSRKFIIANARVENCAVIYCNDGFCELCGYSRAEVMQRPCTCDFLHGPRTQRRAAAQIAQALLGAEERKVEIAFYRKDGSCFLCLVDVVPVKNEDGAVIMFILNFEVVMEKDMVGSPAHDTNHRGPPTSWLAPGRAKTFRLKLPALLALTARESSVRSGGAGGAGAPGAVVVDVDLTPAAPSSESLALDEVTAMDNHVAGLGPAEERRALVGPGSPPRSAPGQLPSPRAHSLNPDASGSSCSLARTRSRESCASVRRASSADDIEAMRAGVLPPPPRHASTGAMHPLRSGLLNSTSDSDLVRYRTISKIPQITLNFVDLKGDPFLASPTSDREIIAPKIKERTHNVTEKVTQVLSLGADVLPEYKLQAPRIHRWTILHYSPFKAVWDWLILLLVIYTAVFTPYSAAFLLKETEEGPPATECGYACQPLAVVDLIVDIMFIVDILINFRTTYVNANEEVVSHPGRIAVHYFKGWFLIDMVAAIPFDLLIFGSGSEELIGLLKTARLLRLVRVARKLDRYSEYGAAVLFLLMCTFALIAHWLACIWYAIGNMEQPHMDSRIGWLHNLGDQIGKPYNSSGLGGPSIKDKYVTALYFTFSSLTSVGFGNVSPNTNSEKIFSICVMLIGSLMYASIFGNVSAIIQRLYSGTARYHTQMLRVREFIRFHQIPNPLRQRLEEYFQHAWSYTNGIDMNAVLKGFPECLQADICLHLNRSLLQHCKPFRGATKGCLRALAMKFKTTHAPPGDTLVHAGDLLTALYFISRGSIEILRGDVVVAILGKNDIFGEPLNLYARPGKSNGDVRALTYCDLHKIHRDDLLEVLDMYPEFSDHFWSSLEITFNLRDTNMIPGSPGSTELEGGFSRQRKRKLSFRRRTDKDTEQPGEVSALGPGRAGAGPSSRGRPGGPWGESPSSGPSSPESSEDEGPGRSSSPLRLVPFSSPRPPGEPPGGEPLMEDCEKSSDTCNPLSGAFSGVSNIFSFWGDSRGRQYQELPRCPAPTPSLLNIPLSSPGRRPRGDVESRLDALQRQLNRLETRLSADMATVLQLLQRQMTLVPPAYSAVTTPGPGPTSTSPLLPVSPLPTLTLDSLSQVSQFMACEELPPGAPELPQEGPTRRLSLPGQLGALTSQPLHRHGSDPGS
# Mus musculus [8] = experiment: Induction of hypothermia in CD-1 mouse assessed as reduction in body temperature at 20 mg/kg, ip administered for 5 days by thermometric method; format: functional, organism-based
# MT4 = experiment: Cytotoxicity against human MT4 cells assessed as effect on cell morphology at 100 uM incubated for 3 to 5 days by microscopic analysis; format: cell-based; details: mt4, 100 µM
# Mus musculus [9] = experiment: Cognitive enhancing effect in mouse model of 5xFAD assessed as increase in recognition memory at 5 mg/kg, po administered for 28 days and measured after 2 hrs of last dosage by novel object recognition test; format: functional, organism-based
# Mus musculus [10] = experiment: Cognitive enhancing effect in mouse model of 5xFAD assessed as increase in recognition memory at 5 mg/kg, po administered for 28 days and measured after 24 hrs of last dosage by novel object recognition test; format: functional, organism-based
# Mus musculus [11] = experiment: Antineuroinflammatory activity in mouse model of 5xFAD assessed as effect on iNOS expression at 5 mg/kg, po administered for 4 weeks by qRT-PCR analysis; format: functional, organism-based
compound,measurement,setting,value
CCOP(=O)(OCC)C1(c2ccccc2)N=CC2C(=O)N(c3ccc(F)c(Cl)c3)C(=O)C21 (racemic),Activity,Mus musculus [1],inactive
same,inhibition (INH),Cytochrome P450 3A4,Not Active
same,Activity,Mus musculus [2],Active
same,Activity,Mus musculus [3],Active
same,Activity,HeLa,Non-Toxic
same,inhibition (INH),Cytochrome P450 2C9,Not Active
same,solubility kinetic at 2 h,[4],92 µM
same,solubility,[5],Soluble
same,IC50,Nischarin,912 µM
same,Ki,Nischarin,912 µM
same,Papp,[6],9.7 ×10⁻⁶ cm/s
same,inhibition (INH),[7],Not Active
same,T,Mus musculus [8],inactive
same,Activity,MT4,Non-Toxic
same,Activity,Mus musculus [9],Active
same,Activity,Mus musculus [10],Active
same,Activity,Mus musculus [11],Active
